According to patent publication US20230295116A1, “PROTEASOME ENHANCERS AND USES THEREOF” (Board of Trustees of Michigan State University, priority 2020, published 2023):

Experiments:
[1] = molecular target: T1, human constitutive 20S proteasome (Homo sapiens, UniProt P25787+P60900); assay: Fluorogenic peptide degradation 20S proteasome activity assay; format: biochemical; conditions: for AC200 (doubling of 20S activity): combination of the three fluorogenic peptide substrates (CT-L, T-L, Casp-L)
T1 construct: purchased Boston Biochem, Inc. (Cambridge, MA)
Text: These substrates were a chymotryptic-like (CT-L), a trypsin-like (T-L) and a caspase-like (Casp-L) substrate, one for each of the catalytic sites of the proteasome. It has been shown that the proteasome’s active sites allosterically regulate each other in the presence of their individual substrates. Therefore, a combination of the three probes to represent the overall activity of a 20S activator more accurately in a system in which all catalytic sites are interacting.
The 20S activity of astemizoles and N-acylastemizole (compound 2) was further assessed in the fluorogenic peptide assay, using each of the individual substrates as well as the combination of the three (FIG. 1B). […] The N-acylated analog achieved similar max fold increases for each substrate/combination (>800% increase over vehicle).
Activity assays were carried out in a 100 µL reaction volume. Different concentrations (1-80 µM) of test compounds were added to a black flat/clear bottom 96-well plate containing 1 nM of human constitutive 20S proteasome, in 50 mM Tris-HCl at pH 7.8, 100 mM NaCl and allowed to incubate for 15 min at 37° C. Fluorogenic substrates were then added and the enzymatic activity measured at 37° C. on a SpectraMax M5e spectrometer by measuring the change in fluorescence unit per minute for 1 hour at 380-460 nm. The fluorescence units for the vehicle control were set at a 100%, and the ratio of drug-treated sample set to that of vehicle control was used to calculate the fold change in enzymatic activity. The fluorogenic substrates used were one of the following: Suc-LLVY-AMC (CT-L activity, 20 µM), Z-LLE-AMC (Casp-L activity, 20 µM), Boc-LRR-AMC (T-L activity, 40 µM) or a combination of the three substrates each at 6.67 µM.

[2] = test system: NF-kB transcription; assay: NF-κB reporter assay (luciferase); format: cell-based; conditions: Homo sapiens; HCT-116 NF-kappaB-luc reporter cells, TNF-alpha 2 ng/mL, 16 hours, n=3; read-out: EC50 for inhibition of NF-kB transcription
Method: (§1) Firefly luminescence was measured using the One-Step Luciferase Assay System from BPS Biosciences.

[3] = test system: MYC-mediated gene transcription; assay: Myc reporter assay (luciferase); format: cell-based; conditions: Homo sapiens, HCT-116; HCT116 Myc-Luc reporter cells, 16 hours, n=3; read-out: EC50 for inhibition of c-MYC
Method: as §1, §1

| SMILES | AC200 (doubling of 20S activity) [1] [µM] | max fold increase (increase over vehicle) ([1]; each substrate/combination) [%] | EC50 [2] [µM] | EC50 [3] [µM] | activation of catalytic sites of the 20S proteasome ([1]; CT-L, T-L and Casp-L substrates) |
| --- | --- | --- | --- | --- | --- |
| COc1ccc(CC(=O)N2CCC(Nc3nc4ccccc4n3Cc3ccc(F)cc3)CC2)cc1 [Compound 2, 1-(4-((1-(4-fluorobenzyl)-1H-benzo[d]imidazol-2-yl)amino)piperidin-1-yl)-2-(4-methoxyphenyl)ethan-1-one] | 3.9 | > 800 | 18 | 19 |  |
| COc1ccc(CCN2CCC(Nc3nc4ccccc4n3Cc3ccc(F)cc3)CC2)cc1 [Compound 1, astemizole, reference compound] | 3.3 |  |  |  | activates all three catalytic sites |
